Measurements reported in publication PMC4979471 (Cell Death Discovery, 2015).
Like-named read-outs stand apart in the source and are kept apart here.

Legend:
Assay in all cases: Kinase selectivity, P33-radiolabeled assay
Assay type in all cases: biochemical
Details in all cases: 10 μM ATP
PAK6 = biological target: T1, PAK6 (Homo sapiens, UniProt Q9NQU5)
T1 construct: purchased Reaction Biology Corp
Method in brief: (§1)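 Activity relative to DMSO controls (%) was measured for compound at 10 μM. Assays ran at 10 μM ATP, in duplicate.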

NEK9 = biological target: T2, NEK9 (Homo sapiens, UniProt Q8TD19)
T2 construct: purchased Reaction Biology Corp
T2 sequence (Q8TD19 1-979): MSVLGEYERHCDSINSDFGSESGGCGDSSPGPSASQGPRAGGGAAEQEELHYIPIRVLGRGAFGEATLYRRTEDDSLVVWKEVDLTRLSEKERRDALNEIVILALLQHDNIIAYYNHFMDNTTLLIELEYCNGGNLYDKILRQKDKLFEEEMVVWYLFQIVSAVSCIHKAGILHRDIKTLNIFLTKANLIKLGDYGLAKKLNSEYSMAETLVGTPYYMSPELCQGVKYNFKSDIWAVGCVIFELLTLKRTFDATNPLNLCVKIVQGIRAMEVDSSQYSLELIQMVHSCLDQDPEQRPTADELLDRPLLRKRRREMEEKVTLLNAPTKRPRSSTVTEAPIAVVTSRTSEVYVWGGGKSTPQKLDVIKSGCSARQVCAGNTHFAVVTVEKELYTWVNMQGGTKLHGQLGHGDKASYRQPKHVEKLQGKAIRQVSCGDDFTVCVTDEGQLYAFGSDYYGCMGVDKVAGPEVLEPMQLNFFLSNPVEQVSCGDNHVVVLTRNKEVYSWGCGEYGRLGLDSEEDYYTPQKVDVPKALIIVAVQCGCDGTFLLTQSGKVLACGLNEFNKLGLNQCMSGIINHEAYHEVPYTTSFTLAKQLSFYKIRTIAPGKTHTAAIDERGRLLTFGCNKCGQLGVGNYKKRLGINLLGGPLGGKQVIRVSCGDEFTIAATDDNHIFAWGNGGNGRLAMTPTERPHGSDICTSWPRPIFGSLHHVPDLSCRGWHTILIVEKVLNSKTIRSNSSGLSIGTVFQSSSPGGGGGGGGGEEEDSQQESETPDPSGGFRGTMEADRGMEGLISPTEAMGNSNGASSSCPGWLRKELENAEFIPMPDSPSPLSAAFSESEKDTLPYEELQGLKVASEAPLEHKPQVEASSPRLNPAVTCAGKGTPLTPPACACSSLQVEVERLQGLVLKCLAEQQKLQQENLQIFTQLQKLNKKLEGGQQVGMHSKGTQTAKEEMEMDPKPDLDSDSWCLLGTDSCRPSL
Method in brief: as §1

OSR1/OXSR1 = biological target: T3, OSR1/OXSR1 (Homo sapiens, UniProt O95747)
T3 construct: purchased Reaction Biology Corp
Method in brief: as §1

ARK5/NUAK1 = biological target: T4, ARK5/NUAK1 (Homo sapiens, UniProt O60285)
T4 construct: purchased Reaction Biology Corp
T4 sequence (O60285 1-661): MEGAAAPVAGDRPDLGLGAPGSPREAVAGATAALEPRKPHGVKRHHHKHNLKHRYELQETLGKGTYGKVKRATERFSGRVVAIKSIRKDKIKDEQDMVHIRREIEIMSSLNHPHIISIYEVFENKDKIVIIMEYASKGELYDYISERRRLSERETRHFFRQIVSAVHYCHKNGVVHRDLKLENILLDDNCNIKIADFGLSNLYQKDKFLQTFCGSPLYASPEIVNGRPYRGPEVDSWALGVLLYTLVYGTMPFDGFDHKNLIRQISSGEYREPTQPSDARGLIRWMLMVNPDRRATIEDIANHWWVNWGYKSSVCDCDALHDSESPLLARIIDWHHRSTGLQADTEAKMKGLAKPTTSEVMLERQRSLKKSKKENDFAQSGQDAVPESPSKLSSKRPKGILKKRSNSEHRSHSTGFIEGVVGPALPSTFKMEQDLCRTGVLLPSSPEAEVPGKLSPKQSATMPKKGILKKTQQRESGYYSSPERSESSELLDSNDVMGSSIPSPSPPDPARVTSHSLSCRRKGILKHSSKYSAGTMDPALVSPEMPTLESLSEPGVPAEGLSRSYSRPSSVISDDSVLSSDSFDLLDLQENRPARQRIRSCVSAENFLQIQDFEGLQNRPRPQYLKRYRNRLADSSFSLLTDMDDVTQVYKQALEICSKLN
Method in brief: as §1

HIPK1 = biological target: T5, HIPK1 (Homo sapiens, UniProt Q86Z02)
T5 construct: purchased Reaction Biology Corp
Method in brief: as §1

ALK3/BMPR1A = biological target: T6, ALK3/BMPR1A (Homo sapiens, UniProt P36894)
T6 construct: purchased Reaction Biology Corp
Method in brief: as §1

CDK6/cyclin D3 = biological target: T7, CDK6/cyclin D3 (Homo sapiens, UniProt Q00534)
T7 construct: purchased Reaction Biology Corp
Method in brief: as §1

CDK2/cyclin A = biological target: T8, CDK2/cyclin A (Homo sapiens, UniProt P24941)
T8 construct: purchased Reaction Biology Corp
Method in brief: as §1

AKT2 = biological target: T9, AKT2 (Homo sapiens, UniProt P31751)
T9 construct: purchased Reaction Biology Corp
Method in brief: as §1

CAMKK1 = biological target: T10, CAMKK1 (Homo sapiens, UniProt Q8N5S9)
T10 construct: purchased Reaction Biology Corp
Method in brief: as §1

FGFR4 = biological target: T11, FGFR4 (Homo sapiens, UniProt P22455)
T11 construct: purchased Reaction Biology Corp
Method in brief: as §1

[1] = read-out: % Enzyme Activity (relative to DMSO controls) AVG
[2] = read-out: % Enzyme Activity (relative to DMSO controls) Data 1
[3] = read-out: % Enzyme Activity (relative to DMSO controls) Data 2

T10 sequence (Q8N5S9 whole entry): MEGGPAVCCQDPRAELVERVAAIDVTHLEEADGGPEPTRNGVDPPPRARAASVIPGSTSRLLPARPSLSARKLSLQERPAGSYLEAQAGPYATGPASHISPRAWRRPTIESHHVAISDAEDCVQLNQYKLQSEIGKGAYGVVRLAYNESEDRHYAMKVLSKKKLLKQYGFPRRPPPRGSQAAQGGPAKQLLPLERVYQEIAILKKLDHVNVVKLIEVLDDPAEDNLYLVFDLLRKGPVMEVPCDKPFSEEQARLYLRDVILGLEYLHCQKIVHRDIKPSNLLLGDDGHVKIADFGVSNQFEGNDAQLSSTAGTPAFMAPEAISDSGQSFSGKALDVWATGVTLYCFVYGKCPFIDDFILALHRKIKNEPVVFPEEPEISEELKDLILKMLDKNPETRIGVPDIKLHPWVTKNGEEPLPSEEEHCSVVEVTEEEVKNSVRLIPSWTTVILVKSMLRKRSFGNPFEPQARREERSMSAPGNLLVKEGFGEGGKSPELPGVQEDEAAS
T3 sequence (O95747 whole entry): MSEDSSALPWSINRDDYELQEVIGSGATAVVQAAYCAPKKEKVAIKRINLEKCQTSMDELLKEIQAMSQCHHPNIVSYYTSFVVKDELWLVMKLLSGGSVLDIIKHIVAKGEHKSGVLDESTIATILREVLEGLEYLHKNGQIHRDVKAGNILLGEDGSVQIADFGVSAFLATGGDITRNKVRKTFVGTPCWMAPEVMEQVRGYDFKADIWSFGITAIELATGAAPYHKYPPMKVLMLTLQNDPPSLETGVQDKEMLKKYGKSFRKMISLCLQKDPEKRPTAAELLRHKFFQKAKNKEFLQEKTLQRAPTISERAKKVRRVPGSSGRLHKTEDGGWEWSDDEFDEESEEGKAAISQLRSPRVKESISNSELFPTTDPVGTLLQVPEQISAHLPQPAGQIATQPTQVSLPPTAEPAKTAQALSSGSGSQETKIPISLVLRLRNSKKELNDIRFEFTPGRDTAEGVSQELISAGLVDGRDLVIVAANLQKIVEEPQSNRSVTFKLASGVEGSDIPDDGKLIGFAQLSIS
T5 sequence (Q86Z02 whole entry): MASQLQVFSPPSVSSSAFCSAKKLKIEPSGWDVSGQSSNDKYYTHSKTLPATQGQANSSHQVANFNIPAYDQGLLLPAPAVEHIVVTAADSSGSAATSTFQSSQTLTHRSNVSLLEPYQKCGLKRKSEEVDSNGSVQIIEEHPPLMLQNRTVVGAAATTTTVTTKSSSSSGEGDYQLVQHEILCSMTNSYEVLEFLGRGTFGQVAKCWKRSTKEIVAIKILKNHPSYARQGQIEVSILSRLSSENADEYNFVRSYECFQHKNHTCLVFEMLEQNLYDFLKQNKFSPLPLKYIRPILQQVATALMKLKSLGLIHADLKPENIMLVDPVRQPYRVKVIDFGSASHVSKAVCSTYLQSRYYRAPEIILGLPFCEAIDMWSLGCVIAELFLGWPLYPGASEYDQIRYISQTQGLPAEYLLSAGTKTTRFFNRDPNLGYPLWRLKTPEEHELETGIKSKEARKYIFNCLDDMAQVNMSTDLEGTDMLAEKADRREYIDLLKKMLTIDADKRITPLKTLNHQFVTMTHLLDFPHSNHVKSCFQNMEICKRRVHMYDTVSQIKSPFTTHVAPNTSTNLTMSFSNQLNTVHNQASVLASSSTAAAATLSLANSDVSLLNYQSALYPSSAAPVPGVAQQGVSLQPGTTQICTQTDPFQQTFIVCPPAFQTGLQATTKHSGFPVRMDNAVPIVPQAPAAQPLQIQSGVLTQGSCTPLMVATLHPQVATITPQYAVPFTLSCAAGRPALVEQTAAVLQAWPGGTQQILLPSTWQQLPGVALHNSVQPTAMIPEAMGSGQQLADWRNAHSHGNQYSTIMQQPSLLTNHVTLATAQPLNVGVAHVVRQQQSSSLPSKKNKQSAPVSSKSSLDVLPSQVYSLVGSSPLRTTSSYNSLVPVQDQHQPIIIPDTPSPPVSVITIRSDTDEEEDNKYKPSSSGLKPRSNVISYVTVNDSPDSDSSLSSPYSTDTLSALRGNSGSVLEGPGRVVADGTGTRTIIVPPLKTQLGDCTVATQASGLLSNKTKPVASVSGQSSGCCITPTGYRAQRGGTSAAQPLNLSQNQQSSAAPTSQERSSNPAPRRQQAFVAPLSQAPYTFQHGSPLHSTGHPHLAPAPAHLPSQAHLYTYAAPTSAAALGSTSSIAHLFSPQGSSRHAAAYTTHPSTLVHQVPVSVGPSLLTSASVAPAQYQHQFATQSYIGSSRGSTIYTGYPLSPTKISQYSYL
T11 sequence (P22455 22-802): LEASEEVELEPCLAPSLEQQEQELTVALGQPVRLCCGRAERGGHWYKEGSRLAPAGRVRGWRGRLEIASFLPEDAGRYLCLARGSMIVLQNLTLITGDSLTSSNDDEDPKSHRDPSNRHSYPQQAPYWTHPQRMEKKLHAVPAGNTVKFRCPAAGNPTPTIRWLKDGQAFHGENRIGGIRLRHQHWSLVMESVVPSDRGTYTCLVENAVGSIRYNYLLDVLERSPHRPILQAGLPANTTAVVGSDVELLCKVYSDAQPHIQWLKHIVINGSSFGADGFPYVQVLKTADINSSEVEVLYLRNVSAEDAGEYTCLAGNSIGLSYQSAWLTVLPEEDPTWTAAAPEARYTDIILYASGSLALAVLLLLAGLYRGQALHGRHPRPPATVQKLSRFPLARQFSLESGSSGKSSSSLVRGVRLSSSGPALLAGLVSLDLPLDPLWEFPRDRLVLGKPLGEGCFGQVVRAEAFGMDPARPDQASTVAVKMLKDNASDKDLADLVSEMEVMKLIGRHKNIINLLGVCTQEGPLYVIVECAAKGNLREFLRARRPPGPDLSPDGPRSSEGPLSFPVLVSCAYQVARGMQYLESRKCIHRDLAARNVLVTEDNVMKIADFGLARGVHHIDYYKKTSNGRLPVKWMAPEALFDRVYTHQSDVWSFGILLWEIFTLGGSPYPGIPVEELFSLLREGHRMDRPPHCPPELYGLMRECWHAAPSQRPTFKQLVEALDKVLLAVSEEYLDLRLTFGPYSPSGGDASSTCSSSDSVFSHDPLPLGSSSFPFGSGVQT
T7 sequence (Q00534 whole entry): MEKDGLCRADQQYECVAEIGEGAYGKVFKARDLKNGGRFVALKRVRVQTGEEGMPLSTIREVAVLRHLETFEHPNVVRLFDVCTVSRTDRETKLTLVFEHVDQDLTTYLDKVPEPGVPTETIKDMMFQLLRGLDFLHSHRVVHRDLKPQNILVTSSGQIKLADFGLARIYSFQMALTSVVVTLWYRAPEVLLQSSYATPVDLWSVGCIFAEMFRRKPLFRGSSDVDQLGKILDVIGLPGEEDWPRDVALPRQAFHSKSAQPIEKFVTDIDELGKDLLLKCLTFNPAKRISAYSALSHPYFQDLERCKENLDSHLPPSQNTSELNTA
T7 sequence (P30281 whole entry partner): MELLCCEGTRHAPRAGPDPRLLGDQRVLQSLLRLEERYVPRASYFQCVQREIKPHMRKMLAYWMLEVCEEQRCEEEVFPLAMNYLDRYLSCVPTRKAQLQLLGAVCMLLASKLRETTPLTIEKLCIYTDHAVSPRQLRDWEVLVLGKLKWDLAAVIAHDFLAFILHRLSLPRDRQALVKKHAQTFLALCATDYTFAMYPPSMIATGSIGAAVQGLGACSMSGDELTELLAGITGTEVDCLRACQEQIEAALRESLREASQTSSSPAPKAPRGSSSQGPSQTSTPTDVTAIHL
T6 sequence (P36894 24-532): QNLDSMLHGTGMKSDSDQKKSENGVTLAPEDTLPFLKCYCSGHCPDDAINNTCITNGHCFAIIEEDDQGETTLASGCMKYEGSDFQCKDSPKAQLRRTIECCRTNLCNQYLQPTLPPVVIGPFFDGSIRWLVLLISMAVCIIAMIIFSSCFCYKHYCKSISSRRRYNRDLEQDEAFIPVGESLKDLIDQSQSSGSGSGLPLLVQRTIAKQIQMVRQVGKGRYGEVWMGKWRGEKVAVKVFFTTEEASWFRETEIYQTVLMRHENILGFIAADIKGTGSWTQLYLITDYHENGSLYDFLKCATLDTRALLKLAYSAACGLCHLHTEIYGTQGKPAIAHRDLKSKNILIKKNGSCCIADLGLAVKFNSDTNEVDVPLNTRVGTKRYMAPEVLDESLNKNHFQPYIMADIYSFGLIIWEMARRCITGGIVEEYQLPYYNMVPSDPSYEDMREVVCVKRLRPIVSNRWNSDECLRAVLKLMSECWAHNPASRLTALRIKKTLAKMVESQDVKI
T1 sequence (Q9NQU5 whole entry): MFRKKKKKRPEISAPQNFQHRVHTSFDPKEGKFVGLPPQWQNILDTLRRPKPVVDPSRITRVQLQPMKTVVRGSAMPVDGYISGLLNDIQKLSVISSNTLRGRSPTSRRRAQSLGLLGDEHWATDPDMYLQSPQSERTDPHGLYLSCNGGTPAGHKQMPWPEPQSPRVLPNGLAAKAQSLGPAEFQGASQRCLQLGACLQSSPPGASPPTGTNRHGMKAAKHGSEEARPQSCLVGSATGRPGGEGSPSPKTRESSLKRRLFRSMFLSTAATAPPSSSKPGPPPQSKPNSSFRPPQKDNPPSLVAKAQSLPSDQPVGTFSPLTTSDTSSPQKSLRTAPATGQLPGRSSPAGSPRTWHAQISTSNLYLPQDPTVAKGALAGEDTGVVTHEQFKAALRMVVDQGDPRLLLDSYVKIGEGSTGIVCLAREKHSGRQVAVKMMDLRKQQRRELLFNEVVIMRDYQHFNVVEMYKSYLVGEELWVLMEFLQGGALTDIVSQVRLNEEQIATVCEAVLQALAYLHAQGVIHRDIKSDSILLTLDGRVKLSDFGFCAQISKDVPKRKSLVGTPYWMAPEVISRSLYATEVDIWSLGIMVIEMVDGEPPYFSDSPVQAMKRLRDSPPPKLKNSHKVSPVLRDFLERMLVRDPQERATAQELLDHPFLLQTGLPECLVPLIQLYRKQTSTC

## CC(C)(C)C(=O)N1N=CC[C@H]1c1ccccc1 [GSK′963]
PAK6; [1]
  remaining activity at 10 µM: 97.1%
PAK6; [2]
  remaining activity at 10 µM: 99.6%
PAK6; [3]
  remaining activity at 10 µM: 94.7%
NEK9; [1]
  remaining activity at 10 µM: 92.8%
NEK9; [2]
  remaining activity at 10 µM: 92.1%
NEK9; [3]
  remaining activity at 10 µM: 93.5%
OSR1/OXSR1; [1]
  remaining activity at 10 µM: 120%
OSR1/OXSR1; [2]
  remaining activity at 10 µM: 127%
OSR1/OXSR1; [3]
  remaining activity at 10 µM: 112%
ARK5/NUAK1; [1]
  remaining activity at 10 µM: 98%
ARK5/NUAK1; [2]
  remaining activity at 10 µM: 95.8%
ARK5/NUAK1; [3]
  remaining activity at 10 µM: 100%
HIPK1; [1]
  remaining activity at 10 µM: 94.3%
HIPK1; [2]
  remaining activity at 10 µM: 95.2%
HIPK1; [3]
  remaining activity at 10 µM: 93.3%
ALK3/BMPR1A; [1]
  remaining activity at 10 µM: 101%
ALK3/BMPR1A; [2]
  remaining activity at 10 µM: 103%
ALK3/BMPR1A; [3]
  remaining activity at 10 µM: 99.8%
CDK6/cyclin D3; [1]
  remaining activity at 10 µM: 86.9%
CDK6/cyclin D3; [2]
  remaining activity at 10 µM: 84.5%
CDK6/cyclin D3; [3]
  remaining activity at 10 µM: 89.3%
CDK2/cyclin A; [1]
  remaining activity at 10 µM: 93.6%
CDK2/cyclin A; [2]
  remaining activity at 10 µM: 95.3%
CDK2/cyclin A; [3]
  remaining activity at 10 µM: 92%
AKT2; [1]
  remaining activity at 10 µM: 92.8%
AKT2; [2]
  remaining activity at 10 µM: 91.7%
AKT2; [3]
  remaining activity at 10 µM: 93.9%
CAMKK1; [1]
  remaining activity at 10 µM: 103%
CAMKK1; [2]
  remaining activity at 10 µM: 105%
CAMKK1; [3]
  remaining activity at 10 µM: 101%
FGFR4; [1]
  remaining activity at 10 µM: 93.5%
FGFR4; [2]
  remaining activity at 10 µM: 91.5%
FGFR4; [3]
  remaining activity at 10 µM: 95.6%
